From PubChem BioAssay (NCI)
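Step 1: Grow cells in 96-well plates. Step 2: Expose to compound for 48 hours at 5 concentrations. Step 3: Interpolate endpoints linearly; if unreached, use highest concentration. The concentration for 50% growth inhibition is given as GI50. Definition used: TGI = concentration required for complete inhibition of growth.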

How the values were obtained:
Assay in all cases: NCI-60 cell line screen, 48 h
[1] = system: HS 578T breast
[2] = system: 786-0 renal
[3] = system: NCI-H522 lung
[4] = system: T-47D breast
[5] = system: HCC-2998 colon
[6] = system: U251 CNS
[7] = system: COLO 205 colon
[8] = system: RXF 393 renal
[9] = system: M14 melanoma
[10] = system: SF-268 CNS
[11] = system: RPMI-8226 leukemia
[12] = system: HCT-116 colon
[13] = system: CCRF-CEM leukemia
[14] = system: BT-549 breast
[15] = system: SF-539 CNS
[16] = system: SNB-75 CNS
[17] = system: LOX IMVI melanoma
[18] = system: CAKI-1 renal
[19] = system: HT29 colon
[20] = system: A498 renal
[21] = system: NCI-H23 lung
[22] = system: HCT-15 colon
[23] = system: HL-60(TB) leukemia
[24] = system: UACC-257 melanoma
[25] = system: A549 NSCLC
[26] = system: OVCAR-3 ovarian
[27] = system: OVCAR-8 ovarian
[28] = system: SR leukemia
[29] = system: SK-MEL-2 melanoma
[30] = system: NCI-H226 lung
[31] = system: DU-145 prostate
[32] = system: NCI-H460 lung
[33] = system: ACHN renal
[34] = system: UO-31 renal
[35] = system: UACC-62 melanoma
[36] = system: KM12 colon
[37] = system: SK-MEL-28 melanoma
[38] = system: SK-MEL-5 melanoma
[39] = system: NCI/ADR-RES ovarian
[40] = system: MDA-MB-435
[41] = system: OVCAR-4 ovarian
[42] = system: SN12C renal
[43] = system: TK-10 renal
[44] = system: PC-3 prostate
[45] = system: HOP-62 NSCLC
[46] = system: SK-OV-3 ovarian
[47] = system: MDA-MB-231 breast
[48] = system: MOLT-4 leukemia
[49] = system: K-562 leukemia
[50] = system: HOP-92 NSCLC
[51] = system: MCF7 breast
[52] = system: OVCAR-5 ovarian
[53] = system: SW-620 colon
[54] = system: IGROV1 ovarian

Cc1nc(N(C)C)nc(-c2cccc(-c3ccn(CCN(C)C)n3)c2)c1C
GI50 [1]: 12.7 µM | TGI [1]: > 20 µM | GI50 [2]: > 20 µM | TGI [2]: > 20 µM | GI50 [3]: > 20 µM | TGI [3]: > 20 µM | GI50 [4]: > 20 µM | TGI [4]: > 20 µM | GI50 [5]: > 20 µM | TGI [5]: > 20 µM | GI50 [6]: > 20 µM | TGI [6]: > 20 µM | GI50 [7]: > 20 µM | TGI [7]: > 20 µM | GI50 [8]: > 20 µM | TGI [8]: > 20 µM | GI50 [9]: > 20 µM | TGI [9]: > 20 µM | GI50 [10]: > 20 µM | TGI [10]: > 20 µM | GI50 [11]: > 20 µM | TGI [11]: > 20 µM | GI50 [12]: > 20 µM | TGI [12]: > 20 µM | GI50 [13]: > 20 µM | TGI [13]: > 20 µM | GI50 [14]: > 20 µM | TGI [14]: > 20 µM | GI50 [15]: > 20 µM | TGI [15]: > 20 µM | GI50 [16]: 4.04 µM | TGI [16]: > 20 µM | GI50 [17]: > 20 µM | TGI [17]: > 20 µM | GI50 [18]: 19.5 µM | TGI [18]: > 20 µM | GI50 [19]: > 20 µM | TGI [19]: > 20 µM | GI50 [20]: 0.628 µM | TGI [20]: > 20 µM | GI50 [21]: > 20 µM | TGI [21]: > 20 µM | GI50 [22]: > 20 µM | TGI [22]: > 20 µM | GI50 [23]: > 20 µM | TGI [23]: > 20 µM | GI50 [24]: > 20 µM | TGI [24]: > 20 µM | GI50 [25]: > 20 µM | TGI [25]: > 20 µM | GI50 [26]: > 20 µM | TGI [26]: > 20 µM | GI50 [27]: > 20 µM | TGI [27]: > 20 µM | GI50 [28]: > 20 µM | TGI [28]: > 20 µM | GI50 [29]: > 20 µM | TGI [29]: > 20 µM | GI50 [30]: > 20 µM | TGI [30]: > 20 µM | GI50 [31]: > 20 µM | TGI [31]: > 20 µM | GI50 [32]: > 20 µM | TGI [32]: > 20 µM | GI50 [33]: > 20 µM | TGI [33]: > 20 µM | GI50 [34]: 9.63 µM | TGI [34]: > 20 µM | GI50 [35]: > 20 µM | TGI [35]: > 20 µM | GI50 [36]: > 20 µM | TGI [36]: > 20 µM | GI50 [37]: > 20 µM | TGI [37]: > 20 µM | GI50 [38]: 15.9 µM | TGI [38]: > 20 µM | GI50 [39]: > 20 µM | TGI [39]: > 20 µM | GI50 [40]: > 20 µM | TGI [40]: > 20 µM | GI50 [41]: > 20 µM | TGI [41]: > 20 µM | GI50 [42]: > 20 µM | TGI [42]: > 20 µM | GI50 [43]: > 20 µM | TGI [43]: > 20 µM | GI50 [44]: > 20 µM | TGI [44]: > 20 µM | GI50 [45]: > 20 µM | TGI [45]: > 20 µM | GI50 [46]: > 20 µM | TGI [46]: > 20 µM | GI50 [47]: > 20 µM | TGI [47]: > 20 µM | GI50 [48]: > 20 µM | TGI [48]: > 20 µM | GI50 [49]: > 20 µM | TGI [49]: > 20 µM | GI50 [50]: 4.71 µM | TGI [50]: > 20 µM | GI50 [51]: > 20 µM | TGI [51]: > 20 µM | GI50 [52]: > 20 µM | TGI [52]: > 20 µM | GI50 [53]: > 20 µM | TGI [53]: > 20 µM | GI50 [54]: > 20 µM | TGI [54]: > 20 µM
